The test system of assay [1] is bovine explants (cartilage degradation, liberation of GAG). The experiment in a line: Cartilage explant assay: pH-induced cartilage degradation, GAG release. Type of assay: cell-based. The note with it: Bos taurus, 72 h, pH 5.5, 3 days. An excerpt:
EXAMPLE 5: CARTILAGE EXPLANT ASSAY
In order to investigate the effect of potential cathepsin D inhibitors on cartilage degradation, a pH-induced model based on bovine explants is used. The pH of the medium in which the explants are cultivated is matched here to the pathophysiological pH of an arthrotic knee. This pH is pH 5.5. In this ex vivo model, potential cathepsin D inhibitors are subsequently investigated for their action with respect to stopping of the cartilage degradation process. If the cartilage is destroyed, glycosaminoglycans (GAGs) are released into the cell culture supernatant. The amount of GAGs liberated can be determined quantitatively with the aid of DMMB (dimethylmethylene blue hydrochloride). If sulfated GAGs are detected using dimethylmethylene blue hydrochloride, the decrease in the absorption at 633 nm is utilised. […] In order to determine the concentration, a calibration line is also recorded using chondroitin sulfate.
1.) Procedure: pH-Induced Cartilage Degradation of Bovine Explants
The bovine explants are firstly prepared. The induction of the cartilage degradation is carried out in 96-multiwell plates. One explant is cultivated per well. In each case, 200 μl of DMEM (incubation medium pH 5.5) without FBS+30 μg/ml of ascorbic acid are added. Thus negative control, explants (n=4) are incubated at pH 7.4 (without FBS). This control is not included in the calculation of the data, but instead ensures that the pH change has the desired effect on the liberation of GAG. At this point, the substances to be tested are added. No pre-incubation of the explants is carried out. The explants are cultivated with the corresponding substances for 3 days in the incubator at 37° C. and 7.5% CO2.
In order to investigate the effect of cathepsin D inhibitors on the liberation of GAG (glycosaminoglycan), the substances are employed in the desired concentration and cultivated for 3 days. The compounds to be tested are tested in a first experiment in a concentration of 1 μM and 1% of DMSO. Substances which have an effect of >50% on the liberation of GAG (this corresponds to <50% of the control in the Assay Explorer) are tested in the next experiment at 100 nM and 1% of DMSO. Substances which have an effect of >50% on the liberation of GAG under these conditions (this corresponds to <50% of the control in the Assay Explorer) are tested in a concentration/effect relationship. The compounds here are investigated in the following concentrations: 30 μM, 10 μM, 3 μM, 1 μM, 0.3 μM, 0.1 μM, 0.03 μM, 0.01 μM.
The positive control used is pepstatin A with a concentration of 0.01 μM. The assay window is defined by the control (pH 5.5), defined as 0% effect, and the control pH 5.5+0.01 μM pepstatin A, defined as 100% effect. After incubation for 3 days, the cell culture supernatants are collected and stored at −20° C. or measured directly. The amount of liberated GAG is measured photometrically.
The effect (1 value) of the respective substance in % based on the positive control (pH 5.5+0.01 μM pepstatin A) and the negative control (pH 5.5) is reported for concentrations of 1 μM and 100 nM. The value represents the average of 4 replicants. In the determination of a concentration/effect relationship, an IC50 value is reported to the database (Assay Explorer).
The cell culture supernatants (200 μl) are either measured directly or stored at −20° C. […] A rapid colour reaction occurs, which is subsequently measured at 633 nm using a plate reader (for example Envision). […]

Assay [2] addresses T1, cathepsin D isolated from the human liver (Homo sapiens, UniProt P07339).
T1 construct: cathepsin D isolated from the human liver (Sigma-Aldrich); purchased Sigma-Aldrich; host or cells: human liver (tissue-derived, not recombinant)
Description: In-vitro fluorescence assay for identification of cathepsin D inhibitors. The class given is biochemical. The note with it: human liver cathepsin D 1.4 nM, pH 5.5; read-out: CatD assay IC50-(M). The procedure, abridged: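 Continuous FRET assay: human liver cathepsin D (1.4 nM final) preincubated 10 min at room temperature with serially diluted compound in 100 mM sodium acetate, 1.25% DMSO, 0.25% Chaps, pH 5.5. Started with 5 μM MCA-GKPILFFRLK(Dnp)d-R-NH2; fluorescence increase (ex 340/em 450 nm) over 60 min at room temperature compared with no-compound control.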

Assay [3] concerns rat knee joint inflammation (CAR-induced). The experiment in a line: Anti-hyperalgesic effect in animals: carrageenan-induced knee joint inflammation, Hargreaves test and swelling. Type of assay: in vivo. The note with it: intra-articular administration 30 minutes before CAR; for CAR-induced swelling: rat knee joint. The protocol: EXAMPLE 6: INVESTIGATION OF THE ANTI-HYPERALGESIC EFFECT IN ANIMALS
In order to induce an inflammation reaction, a carrageenan solution […]) was injected intra-articularly on one side into a rat knee joint. The uninjected side was used for control purposes. Six animals per group were used. The […] was determined by means of a micrometer screw (medial-lateral on the knee joint), and the thermal hyperalgesia was determined by means of a directed infrared light source by the Hargreaves method (Hargreaves et al., 1988) on the sole of the foot. Since the site of inflammation (knee joint) is different from the site of measurement (paw sole), use is made here of the term secondary thermal hyperalgesia, the mechanism of which is of importance for the discovery of effective analgesics.
Experimental description of thermal hyperalgesia (Hargreaves test): the experimental animal is placed in a plastic chamber on a quartz sheet. Before testing, the experimental animal is firstly given about 5-15 minutes time to familiarise itself with the environment. As soon as the experimental animal no longer moves so frequently after the familiarisation phase (end of the exploration phase), the infrared light source, whose focus is in the plane of the glass bottom, is positioned directly beneath the rear paw to be stimulated. An experiment run is then started by pressing the button: infrared light results in an increase in the skin temperature of the rear paw. The experiment is terminated either by the experimental animal raising the rear paw (as an expression of the pain threshold being reached) or by automatic switching-off of the infrared light source when a prespecified maximum temperature has been reached. Light reflected by the paw is recorded as long as the experimental animal sits still. Withdrawal of the paw interrupts this reflection, after which the infrared light source is switched off and the time from switching on to switching off is recorded. […]

Assay [4] has as its system bovine explants (cartilage degradation, liberation of GAG). Particulars: pH 5.5, explant cultures (for example from mouse, cow or human); background statement; cited from earlier work.

Molecules are shown by their SMILES. *1 amine or outer side, *2 acyl side, *3 side chain or, on linkers, in order; H or OH if unused. Where a SMILES comes first, the peptide text is derived from it. [ ]: non-standard residue; d: D form. The star is where a group is joined. Ahppa(3S,4S) = O=C(C[C@H](O)[C@H](Cc1ccccc1)N[*:1])[*:2]; Sta = CC(C)C[C@H](N)[C@@H](O)CC(=O)O; Isovaleryl = CC(C)CC(=O)*

T1 sequence (P07339 65-161 limits assumed): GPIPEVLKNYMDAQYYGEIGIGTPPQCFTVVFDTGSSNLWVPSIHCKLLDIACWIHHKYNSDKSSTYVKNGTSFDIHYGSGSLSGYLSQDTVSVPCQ
T1 sequence (P07339 169-412 limits assumed): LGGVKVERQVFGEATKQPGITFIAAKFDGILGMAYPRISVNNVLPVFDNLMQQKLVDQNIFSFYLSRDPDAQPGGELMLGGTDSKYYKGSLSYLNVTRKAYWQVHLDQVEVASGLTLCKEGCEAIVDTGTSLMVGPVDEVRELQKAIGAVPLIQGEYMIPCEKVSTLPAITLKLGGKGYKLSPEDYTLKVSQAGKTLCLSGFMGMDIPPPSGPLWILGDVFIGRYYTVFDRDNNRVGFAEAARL

As a reminder, the IC50 is the concentration that inhibits the measured activity by half. For the molecule `CC[C@H](C)[C@H](NC(=O)C[C@H](O)[C@H](Cc1ccccc1)NC(=O)[C@H](NC(=O)[C@H](CC(C)C)NC(=O)CC(C)C)C(C)C)C(=O)N[C@H](C(=O)O)C(C)C` [Compound 9, (S)-2-[(2S,3S)-2-((3S,4S)-3-hydroxy-4-{(R)-3-methyl-2-[(S)-4-methyl-2-(3-methylbutyrylamino)pentanoylamino]butyrylamino}-5-phenylpentanoylamino)-3-methylpentanoylamino]-3-methylbutyric acid] (Isovaleryl-L[dV][Ahppa(3S,4S)]IV-OH), the 50% inhibitory concentration (IC50) in assay [1] is 31.2 nM; in assay [2] it was 7.51e-08 M.
As to `CC[C@H](C)[C@H](NC(=O)C[C@H](O)[C@H](Cc1ccccc1)NC(=O)[C@@H](NC(=O)c1cccc(-c2ccccc2)c1)C(C)C)C(=O)N[C@H](C(=O)OCc1ccccc1)C(C)C` [Compound 23, benzly (S)-2-[(2S,3S)-2-((3S,4S)-4-{(S)-2-[(biphenyl-3-carbonyl)-amino]-3-methylbutyrylamino}-3-hydroxy-5-phenylpentanoylamino)-3-methylpentanoylamino]-3-methylbutyrate], the CAR-induced swelling entry in assay [3] was “exhibited no influence on inflammatory swelling”. The “thermal hyperalgesia (anti-hyperalgesic action)” value in assay [3] (rat, Hargreaves method) is “exerts an anti-hyperalgesic action”. Further, in assay [2], the IC50 was determined as 1.2e-05 M.
In the case of `C[C@]12C=CC(=O)C=C1CC[C@H]1[C@@H]3C[C@@H](O)[C@](O)(C(=O)CO)[C@@]3(C)C[C@H](O)[C@@]12F` [TAC, Triamcinolone, reference compound], the CAR-induced swelling entry in assay [3] is listed as “capable of reducing the CAR-induced swelling”.
On to `CC(C)CC(=O)N[C@H](C(=O)N[C@H](C(=O)N[C@@H](CC(C)C)[C@@H](O)CC(=O)N[C@@H](C)C(=O)N[C@@H](CC(C)C)[C@@H](O)CC(=O)O)C(C)C)C(C)C` [pepstatin] (Isovaleryl-VV[Sta]A[Sta]-OH), for which the “inhibition of autodigestion of the cartilage” value in assay [4] is on record as “inhibited virtually completely”.
For `CC[C@H](C)[C@H](NC(=O)C[C@H](O)[C@H](Cc1ccccc1)NC(=O)[C@@H](NC(=O)[C@H](CC(C)C)NC(=O)CC(C)C)C(C)C)C(=O)N[C@H](C(=O)O)C(C)C` [Compound 8, (S)-2-[(2S,3S)-2-((3S,4S)-3-hydroxy-4-{(S)-3-methyl-2-[(S)-4-methyl-2-(3-methylbutyrylamino)pentanoylamino]butyrylamino}-5-phenylpentanoylamino)-3-methylpentanoylamino]-3-methylbutyric acid] (Isovaleryl-LV[Ahppa(3S,4S)]IV-OH), the IC50 is 2.76 nM in assay [1] and 3e-09 M in assay [2].
`CC(C)c1nc(CN(C)C(=O)N[C@H](C(=O)N[C@@H](Cc2ccccc2)C[C@H](O)[C@H](Cc2ccccc2)NC(=O)OCc2cncs2)C(C)C)cs1` [ritonavir]: the “inhibition of autodigestion of the cartilage” value in assay [4] was “inhibited virtually completely”.

The values are drawn from patent publication US10077288B2, “Hydroxystatin derivatives for the treatment of arthrosis” (Merck Patent GmbH, priority 2012, dated 2018).
